# Experimental data: patent US20040014653A1, “Peptide composition” (priority 2000, published 2004)
# Tested on: Human keratinocytes (HatKat)
# Experiment: Growth of keratinocytes, cell count in Coulter counter after three days
# Format: cell-based
# Description: Human keratinocytes (HatKat) were grown in keratinocyte growth medium (TCS Cellworks Ltd.) until 20% confluence. Then, in the same medium, the keratinocytes were grown for three days with 0.5% foetal calf serum (FCS), at which point the cells were counted in a Coulter® counter. The cell numbers obtained are set out in Table 3 below.
substance,measurement,setting,value
"EGF: epidermal growth factor, comparator growth factor in keratinocyte growth test",increase in the growth of keratinocytes (in words),10 ng/mi EGF versus medium with 0.5% FCS,relatively modest increase
same,Number of cells,"Medium with 0.5% FCS + 10 ng/ml EGF, three days","29,356"
